Results published in article PMC10269895 (Microbiology Spectrum, 2023).

Key:
[1] = system: Salmonella enterica serovar Typhimurium; test: Ames II test; type: cell-based; settings: with and without S9
Protocol: The test was carried out with and without metabolic activation by S9 liver homogenate from rats that had been pretreated with Arcolor, S9 mix. The Salmonella enterica serovar Typhimurium tester strains included the mixed strains TA7001 to TA7006 for detection of base pair substitutions and TA98 for detection of frameshift mutations ([18]). Bacterial cultures (from frozen stocks) were grown overnight and tested for genotype conformation. Test compound diluted in DMSO was tested at 16, 50, 160, 500, 1,600, and 5,000 μg/mL with each strain, both in the presence and in the absence of the exogenous hepatic microsomal fraction (S9) from Aroclor 1254-treated rats (obtained as described above). […] Then, 2.8 mL of a pH indicator solution (Merck KGaA, Darmstadt, Germany) (bromocresol purple) containing trace amounts of histidine and biotin (ready-to-use commercial solution) was added to each well, and all samples were then transferred into a 384-well plate. […] Toxicity was assessed by evaluating the density of growth of the background lawn of bacteria. Mutagenicity was assessed by counting the number of wells with color changes (purple or yellow) or the number of easily visible colonies (revertants).

[2] = system: PDE3A, acetylcholinesterase, MAO-A, Na+/K+-ATPase; settings: 0.01 mM
Protocol: The targets were human recombinant proteins unless a different species is stated. All tests were conducted at a peptide concentration of 0.01 mM according to CEREP procedures.
Pharmacological off-target profiling was conducted by CEREP (Celle-Le’vescault, France) to investigate inhibitory effects against the targets specified in Fig. 3 and 4. […] We selected 19 G-protein-coupled receptors (acetylcholine, adenosine, androgens, cannabinoids, dopamine, histamine, opioids, and serotonin), eight ion channels (Gly, nicotinic acetylcholine receptor [nAChR], phencyclidine [PCP], Cav1.2, Kv, SKCa, and γ-aminobutyric acid-gated chloride channels [GABACl]), two transporters (dopamine transporter [DAT] and noradrenaline transporter [NET]), and four enzymes (phosphodiesterase [PDE], acetylcholinesterase, monoamine oxidase (MAO), and Na^+/K^+-ATPase) for testing.

CYP3A4 = target: T1, CYP3A4 (Homo sapiens, UniProt P08684); test: CYP inhibition IC50 shift assay in human liver microsomes; type: in vitro ADME; settings: concentrations of up to 50 μM
T1 construct: the reaction mixture was prepared with a human liver microsome concentration of 0.1 mg/mL; from tissue; host or cells: human liver microsomes
Protocol: To examine the potential for time-dependent and direct competitive CYP3A4 inhibition, the reaction mixture was prepared with a human liver microsome concentration of 0.1 mg/mL. GE81112A was added to final concentrations of 50, 25, 10, 5, 2, 0.4, and 0.08 μM. Mixtures were brought to 37°C, with the addition of an NADPH-generating system (EDTA, 1 mM; MgCl2, 3 mM; β-NADPH, 1 mM; glucose 6-phosphate, 5 mM final concentration) in water to one set of reaction mixtures and water to a second set of reaction mixtures. The reaction mixtures were preincubated for 45 min. A CYP isoform-selective substrate (3 μM midazolam or 50 μM testosterone) was added to the reaction mixtures, and NADPH was added to the second set of reaction mixtures for an additional 10-min incubation period. The reactions were stopped by the addition of 200 μL internal standard solution in acetonitrile.
Both incubation plates (for midazolam and testosterone) were centrifuged at 3,000 rpm for 10 min. The samples were analyzed using LC-MS/MS. Parallel analysis of the CYP3A4 substrate midazolam and the CYP3A4 substrate testosterone was performed. The calculations of 50% inhibitory concentration (IC50) values and IC50 shift values were performed by using 4-paratemeter curve fitting.

[3] = Metabolic stability in liver microsomes; type: in vitro ADME; settings: 5 μM
Protocol: Microsomal preparations from human and animal species were used at a protein concentration of 1 mg/mL, and the cofactor NADPH was added to a final concentration of 1 mM to assay for CYP and flavin-containing monooxygenase (FMO) lability. GE81112A at 5 μM was incubated for 20 min at 37°C. The enzymatic reaction was initiated by a rapid temperature increase in a water bath at 37°C. It was stopped by a rapid temperature decrease in an ice bath at 0°C and subsequent addition of 5 volumes of precooled acetonitrile (500 μL). Loss of parent GE81112A concentration, as a percentage, was determined using LC-MS/MS measurements, where 100% was the measurement at time zero.

primary rat hepatocytes = test: Cytotoxicity (CellTiter-Glo ATP and neutral red uptake); type: cell-based
Protocol: The toxicity of GE81112A toward human hepatocellular carcinoma HepG2 HB-8065 (ATCC) cells and freshly isolated primary Sprague-Dawley rat hepatocytes (Charles River) was assessed by using the CellTiter-Glo ATP-monitoring kit (Promega) and by quantifying the ability to store the dye neutral red (neutral red uptake [NRU] solution; Sigma-Aldrich, St. Louis, MO, USA). The assay was conducted in 96-well microtiter plates in a test volume of 200 μL. GE81112A was tested in an 8-fold 1:2 dilution series with a final concentration range of […]. HepG2 cells or primary hepatocytes were maintained at 37°C in 5% CO2 in DMEM-F-12 medium containing 1% nonessential amino acids, 1% sodium pyruvate, and 10% heat-inactivated FCS. Prior to each test, 100 μL of culture medium was added to each well (each containing about 20,000 cells), and the plates were incubated for 16 h as described above. GE81112A was diluted in culture medium to obtain appropriate concentrations and was added to the wells as six replicates. […] After incubation for 24 h as described above, cell viability was calculated either by cell lysis and subsequent luminometric quantification of the ATP concentration in each sample or by measurement of the amount of neutral red taken up by the cells. NRU was measured at 540 nm (Tecan Genios Pro) after 3 h of incubation with NRU solution and subsequent cell lysis. […]

T1 sequence (P08684 whole entry): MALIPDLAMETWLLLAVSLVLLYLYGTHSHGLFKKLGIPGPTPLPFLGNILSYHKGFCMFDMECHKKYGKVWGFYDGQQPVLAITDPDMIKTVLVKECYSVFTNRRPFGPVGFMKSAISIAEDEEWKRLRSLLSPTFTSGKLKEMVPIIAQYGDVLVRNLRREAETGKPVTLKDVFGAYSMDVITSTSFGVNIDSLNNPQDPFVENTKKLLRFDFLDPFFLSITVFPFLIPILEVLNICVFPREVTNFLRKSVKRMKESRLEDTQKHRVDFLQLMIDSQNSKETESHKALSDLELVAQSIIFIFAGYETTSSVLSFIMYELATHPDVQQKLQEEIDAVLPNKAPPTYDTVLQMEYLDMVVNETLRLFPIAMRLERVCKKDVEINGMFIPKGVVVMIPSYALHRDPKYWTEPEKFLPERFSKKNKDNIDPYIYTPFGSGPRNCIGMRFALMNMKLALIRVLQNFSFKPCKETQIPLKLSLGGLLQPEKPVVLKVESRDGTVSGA

## NC(=O)OC[C@@H](O)C[C@H](NC(=O)[C@H]1NCCC[C@H]1O)C(=O)N[C@@H](Cc1c[nH]cn1)C(=O)N[C@H](C(=O)O)[C@H](O)c1cnc(Cl)[nH]1 [GE81112A]
[1]
  Mutagenicity: no mutagenicity
[2]
  Off-target inhibitory effects, enzyme and uptake assays: no critical inhibiting effect
CYP3A4
  Direct competitive inhibition of CYPA4: not observed
  Time-dependent inhibition of CYPA4: not observed
[3]; human liver microsomes
  Oxidative metabolic lability: low
[3]; mouse liver microsomes
  Oxidative metabolic lability: low
[3]; rat liver microsomes
  Oxidative metabolic lability: low
Primary rat hepatocytes; 24 h, highest concentration with cell viability of >80%
  No observed effect concentration (NOEC): 15.6 µM
Primary rat hepatocytes; Table 3 summary rating
  Overview finding: Cytotoxicity (rat hepatocytes/HepG2 cells): +/− (to be monitored)
